Assay results published in ChEMBL document CHEMBL5050844 (2019).

Tests used:
[1] = Induction of anti-CD3/CD28 antibodies-stimulated human T cell activation at 0.3 uM assessed fold increase in CD25 expression measured by ELISA assay; format: functional, T cell line
[2] = Induction of anti-CD3 antibodies-stimulated human CD4+ T cell activation in immunocompetent mouse assessed fold increase in CD25 expression at 135 mg/kg, po administered twice a day; format: functional; also: reference of the scale not given here
[3] = Induction of anti-CD3 antibodies-stimulated human T cell activation at 1 uM assessed fold increase in IL-2 secretion measured by ELISA assay; format: functional, T cell line; also: reference of the scale not given here
[4] = Induction of anti-CD3/CD28 antibodies-stimulated human T cell activation at 1 uM assessed fold increase in CD25 expression measured by ELISA assay; format: functional, T cell line
[5] = Induction of activation of human CD56+ CD3- NK cells co-cultured with human K562 cells in 1:1 ratio and assessed as increase in TNF-alpha secretion at 10 uM measured by ELISA assay; format: functional, Natural killer cell
[6] = Induction of anti-CD3 antibodies-stimulated human T cell activation at 8 uM assessed fold increase in IL-2 secretion measured by ELISA assay; format: functional, T cell line; also: reference of the scale not given here
[7] = Induction of anti-CD3 antibodies-stimulated human T cell activation at 1 uM assessed fold increase in CD25 expression measured by ELISA assay; format: functional, T cell line; also: reference of the scale not given here
[8] = Induction of anti-CD3 antibodies-stimulated human CD8+ T cell activation in immunocompetent mouse assessed fold increase in CD25 expression at 45 mg/kg, ip administered twice a day; format: functional; also: reference of the scale not given here
[9] = Induction of anti-CD3 antibodies-stimulated human CD8+ T cell activation in immunocompetent mouse assessed fold increase in CD25 expression at 180 mg/kg, po administered twice a day; format: functional; also: reference of the scale not given here
[10] = Induction of activation of human CD56+ CD3- NK cells co-cultured with human K562 cells in 1:1 ratio and assessed as increase in IFN-gamma secretion at 10 uM measured by ELISA assay; format: functional, Natural killer cell
[11] = molecular target: T1, E3 ubiquitin-protein ligase CBL-B (Homo sapiens, UniProt Q13191); assay: Binding affinity towards N-terminal biotinylated Avi-tagged human CBL-B (36 to 427 residues) measured by surface plasmon resonance assay
[12] = Induction of anti-CD3 antibodies-stimulated human CD8+ T cell activation in immunocompetent mouse assessed fold increase in CD25 expression at 135 mg/kg, po administered twice a day; format: functional; also: reference of the scale not given here
[13] = Induction of anti-CD3 antibodies-stimulated human CD8+ T cell activation in immunocompetent mouse assessed fold increase in CD25 expression at 90 mg/kg, po administered twice a day; format: functional; also: reference of the scale not given here
[14] = Induction of activation of human CD56+ CD3- NK cells co-cultured with human K562 cells in 1:1 ratio and assessed as increase in IFN-gamma secretion at 1 uM measured by ELISA assay; format: functional, Natural killer cell
[15] = Induction of anti-CD3 antibodies-stimulated human CD4+ T cell activation in immunocompetent mouse assessed fold increase in CD25 expression at 45 mg/kg, po administered twice a day; format: functional; also: reference of the scale not given here
[16] = Induction of anti-CD3/CD28 antibodies-stimulated human T cell activation at 4 uM assessed fold increase in IL-2 secretion measured by ELISA assay; format: functional, T cell line
[17] = molecular target: T1, E3 ubiquitin-protein ligase CBL-B; assay: Inhibition of N-terminal Avi-tagged human CBL-B (36 to 427 residues) incubated with 60 nM Src kinase for 1.5 hrs followed by incubation with fluorescently labeled UbcH5B-Ub for 1 hr and measured by TR-FRET assay; format: single protein
[18] = Induction of activation of human CD56+ CD3- NK cells co-cultured with human K562 cells in 1:1 ratio and assessed as increase in MIP1beta secretion at 10 uM measured by ELISA assay; format: functional, Natural killer cell
[19] = Induction of anti-CD3/CD28 antibodies-stimulated human T cell activation at 1 uM assessed fold increase in IL-2 secretion measured by ELISA assay; format: functional, T cell line
[20] = Induction of activation of human CD56+ CD3- NK cells co-cultured with human K562 cells in 1:1 ratio and assessed as increase in TNF-alpha secretion at 1 uM measured by ELISA assay; format: functional, Natural killer cell
[21] = Induction of activation of human CD56+ CD3- NK cells co-cultured with human K562 cells in 5:1 ratio and assessed as increase in TNF-alpha secretion at 10 uM measured by ELISA assay; format: functional, Natural killer cell
[22] = Induction of activation of human CD56+ CD3- NK cells co-cultured with human K562 cells in 5:1 ratio and assessed as increase in IFN-gamma secretion at 1 uM measured by ELISA assay; format: functional, Natural killer cell
[23] = Induction of activation of human CD56+ CD3- NK cells co-cultured with human K562 cells in 5:1 ratio and assessed as increase in MIP1beta secretion at 1 uM measured by ELISA assay; format: functional, Natural killer cell
[24] = Induction of anti-CD3/CD28 antibodies-stimulated human T cell activation at 0.3 uM assessed fold increase in IL-2 secretion measured by ELISA assay; format: functional, T cell line
[25] = Induction of anti-CD3 antibodies-stimulated human CD4+ T cell activation in immunocompetent mouse assessed fold increase in CD25 expression at 45 mg/kg, ip administered twice a day; format: functional; also: reference of the scale not given here
[26] = Induction of anti-CD3 antibodies-stimulated human CD4+ T cell activation in immunocompetent mouse assessed fold increase in CD25 expression at 90 mg/kg, po administered twice a day; format: functional; also: reference of the scale not given here
[27] = Induction of anti-CD3/CD28 antibodies-stimulated human T cell activation at 4 uM assessed fold increase in CD25 expression measured by ELISA assay; format: functional, T cell line
[28] = Induction of anti-CD3 antibodies-stimulated human CD4+ T cell activation in immunocompetent mouse assessed fold increase in CD25 expression at 180 mg/kg, po administered twice a day; format: functional; also: reference of the scale not given here
[29] = Induction of anti-CD3 antibodies-stimulated human T cell activation at 8 uM assessed fold increase in CD25 expression measured by ELISA assay; format: functional, T cell line; also: reference of the scale not given here
[30] = Induction of activation of human CD56+ CD3- NK cells co-cultured with human K562 cells in 5:1 ratio and assessed as increase in TNF-alpha secretion at 1 uM measured by ELISA assay; format: functional, Natural killer cell
[31] = Induction of activation of human CD56+ CD3- NK cells co-cultured with human K562 cells in 5:1 ratio and assessed as increase in IFN-gamma secretion at 10 uM measured by ELISA assay; format: functional, Natural killer cell
[32] = Induction of activation of human CD56+ CD3- NK cells co-cultured with human K562 cells in 1:1 ratio and assessed as increase in MIP1beta secretion at 1 uM measured by ELISA assay; format: functional, Natural killer cell
[33] = Induction of activation of human CD56+ CD3- NK cells co-cultured with human K562 cells in 5:1 ratio and assessed as increase in MIP1beta secretion at 10 uM measured by ELISA assay; format: functional, Natural killer cell
[34] = Induction of anti-CD3 antibodies-stimulated human CD8+ T cell activation in immunocompetent mouse assessed fold increase in CD25 expression at 90 mg/kg, ip administered twice a day; format: functional; also: reference of the scale not given here
[35] = Induction of anti-CD3 antibodies-stimulated human CD4+ T cell activation in immunocompetent mouse assessed fold increase in CD25 expression at 90 mg/kg, ip administered twice a day; format: functional; also: reference of the scale not given here

T1 sequence (Q13191 whole entry, the tested form may be a part): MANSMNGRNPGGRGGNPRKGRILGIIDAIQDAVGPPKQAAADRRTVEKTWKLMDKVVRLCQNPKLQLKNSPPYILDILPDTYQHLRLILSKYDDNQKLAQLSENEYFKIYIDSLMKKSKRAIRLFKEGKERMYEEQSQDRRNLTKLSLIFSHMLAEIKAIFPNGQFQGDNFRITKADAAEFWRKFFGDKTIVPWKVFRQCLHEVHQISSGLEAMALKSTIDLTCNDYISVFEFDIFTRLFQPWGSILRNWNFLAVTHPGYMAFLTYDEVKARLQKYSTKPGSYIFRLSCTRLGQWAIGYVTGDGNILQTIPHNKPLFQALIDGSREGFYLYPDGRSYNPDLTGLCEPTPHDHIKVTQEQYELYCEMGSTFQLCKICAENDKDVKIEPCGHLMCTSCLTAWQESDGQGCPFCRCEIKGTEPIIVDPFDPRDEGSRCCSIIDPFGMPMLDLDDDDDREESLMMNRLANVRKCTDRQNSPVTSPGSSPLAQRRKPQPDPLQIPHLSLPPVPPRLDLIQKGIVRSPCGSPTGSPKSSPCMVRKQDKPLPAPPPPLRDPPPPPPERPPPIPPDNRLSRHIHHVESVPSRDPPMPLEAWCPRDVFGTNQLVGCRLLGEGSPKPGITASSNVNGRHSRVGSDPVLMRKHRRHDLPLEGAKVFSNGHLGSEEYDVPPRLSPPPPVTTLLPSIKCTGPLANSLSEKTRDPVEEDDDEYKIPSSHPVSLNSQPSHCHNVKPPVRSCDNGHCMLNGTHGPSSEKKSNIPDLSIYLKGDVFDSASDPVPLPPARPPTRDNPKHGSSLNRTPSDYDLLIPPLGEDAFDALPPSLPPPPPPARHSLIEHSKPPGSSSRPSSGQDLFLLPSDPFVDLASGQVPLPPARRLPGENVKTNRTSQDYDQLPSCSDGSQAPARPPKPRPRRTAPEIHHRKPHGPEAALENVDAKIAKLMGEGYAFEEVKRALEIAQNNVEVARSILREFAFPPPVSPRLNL

| SMILES | fold change (FC) [1] | fold change (FC) [3] | fold change (FC) [4] | fold change (FC) [5] | fold change (FC) [6] | fold change (FC) [7] | fold change (FC) [10] | fold change (FC) [14] | fold change (FC) [16] | fold change (FC) [18] | fold change (FC) [19] | fold change (FC) [20] | fold change (FC) [21] | fold change (FC) [22] | fold change (FC) [23] | fold change (FC) [24] | fold change (FC) [27] | fold change (FC) [29] | fold change (FC) [30] | fold change (FC) [31] | also measured |
| --- | --- | --- | --- | --- | --- | --- | --- | --- | --- | --- | --- | --- | --- | --- | --- | --- | --- | --- | --- | --- | --- |
| C[C@H](Cc1nncn1C)c1cccc(NC(=O)c2cc(C3CC3)cc(C(F)(F)F)n2)c1 | 1.31 | >=0.201 | 1.51 | 1.01 | >=0.201 | >=1.001 | 2.01 | 2.01 | >=7.5 | 1.01 | 5 | 2.01 | 2.01 | 2.01 | 1.01 | 2.51 | 1.51 | >=1.001 | 2.01 | >=5 | fold change (FC) [2]: 2.01; fold change (FC) [8]: 1; fold change (FC) [9]: 1; Kd [11]: < 100 nM; fold change (FC) [12]: 1; fold change (FC) [13]: 1; fold change (FC) [15]: 1; IC50 [17]: < 100 nM; fold change (FC) [25]: 1.51; fold change (FC) [26]: 1; fold change (FC) [28]: 1; fold change (FC) [32]: 1.01; fold change (FC) [33]: 1.01 |
| C[C@H](Cc1nncn1C)c1cccc(NC(=O)c2ccnc(C(F)(F)F)n2)c1 | 1.51 | >=0.201 | >=1.76 | 2.01 | >=0.201 | 0.801 | 2.01 | 1.01 | >=7.5 | 2.01 | 2.51 | <=1 | >=5 | 2.01 | 1.01 | 1.01 | >=1.76 | >=1.001 | 2.01 | >=5 | fold change (FC) [34]: 1; fold change (FC) [35]: 1.51; fold change (FC) [32]: 1.01; fold change (FC) [33]: 2.01 |
